Reference: patent US4960867A, “Leiurus quinquestriatus venom peptide inhibitor of calcium activated potassium channels” (priority 1989, dated 1990)

Test system: high conductance Ca2+-activated K+ channel
Assay type: biochemical
Procedure: Single Ca^2+ -activated K^+ channel currents were monitored in excised membrane patches derived from either bovine aortic smooth muscle cells or GH3 anterior pituitary cells.
Channel recordings were made by conventional patch clamp procedures as previously described by Hamil, O. P., et al. Using a micromanipulator, a glass micropipette (fabricated from soda lime glass, 5-10 m.OMEGA. resistance; containing 150 mM potassium chloride, 2 mM magnesium chloride, 1 5 μM calcium chloride, 10 mM HEPES, pH 7.3) was positioned on the surface of the cell, slight negative pressure was applied and the formation of a high resistance seal between the plasma membrane and pipette was monitored. Seals of 10-50×10^9 .OMEGA. were required for subsequent measurements.
After attaining such a seal, the cell membrane was ruptured by application of a rapid negative pressure pulse and the electrode was pulled away from the cell to form an outside-facing-out excised patch at the tip of the electrode. The presence of Ca^2+ -activated K^+ channels was then determined, and such activity could be recorded in excised patches for up to two hours. Recordings were made at a holding potential of 0 to +20 mV in a bathing medium consisting of 150 mM sodium chloride, 10 mM HEPES, pH 7.3. […]

## CC[N+](CC)(CC)CC [tetraethylammonium ion]
  block of channel activity: rapid reversible block
